Counter-ions that a name gives are not always drawn.
Key:
IgG1 production = experiment: Test 4 (comparison): inhibition of IgG1 production; assay type: in vivo, Balb/c mouse; conditions: Mus musculus, po; 100 mg/kg orally once a day, Day 1 to Day 10; spleen cells, DNP-BSA 5 μg/ml, 24 hours; read-out: Inhibition rate of IgG1 production
Description: (§1) Test 4: Test on the inhibition of IgE production
(§2) To a Balb/c mouse, the DNP-labeled ascaris antigen (5 μg) and Alum (1 mg) were intraperitoneally administered on Day 1 and Day 6 to sensitize the mouse with the antibody. From Day 1 to Day 10, a medicament was orally administered at a dose of 100 mg/kg once a day. On Day 11, the mouse was subjected to splenectomy and the spleen so obtained was untangled into its cells. To 5×10^7 cells/ml of the spleen cells so obtained, DNP-BSA (5 μg/ml) was added, followed by incubation at 37° C. for 24 hours. After incubation, 100 μl of the supernatant were collected and subjected to the measurement an IgE measuring kit (Yamasa Co., Ltd.). In order to determine IgG1, IgG2a and IgM, the absorbance of the incubated supernatant was measured by the EIA method and provided for comparison. The inhibition rate of IgE production was calculated according to the below-described formula. Inhibition rates of the IgG1, IgG2a and IgM production were similarly calculated, respectively. [formula]

IL-4 production [1] = experiment: Test 1: inhibition of IL-4 production in human T-cell strain ATL-16T(-) stimulated with PMA (R&D Systems EIA); assay type: cell-based; conditions: ATL-16T(-) 1×10^6 cells/0.5 ml/well, 20 nM PMA, 48 hours, read-out: Inhibition rate of IL-4 production; for inhibition at 10 µM: 10^-5 M; for inhibition at 1 µM: 10^-6 M; for inhibition at 0.1 µM: 10^-7 M; for inhibition at 0.01 µM: 10^-8 M
Description: Test 1: Test on the inhibition of IL-4 production
(§3) Into individual wells of a 48-well microplate, the human T-cell strain ATL-16T(-) was poured at a concentration of 1×10^6 cells/0.5 ml/well (n=3), followed by the addition of a stimulator (20 nM of PMA) and a medicament at the same time. The resulting mixture was incubated in 5% CO2 at 37° C. for 48 hours. After incubation, 100 μl of the supernatant were collected and subjected to measurement by a human IL-4 EIA kit (R&D SYSTEMS, INC.). The inhibition rate was calculated according to the following formula. [formula]

IgM production = experiment: Test 4 (comparison): inhibition of IgM production; assay type: in vivo, Balb/c mouse; conditions: Mus musculus, po; 100 mg/kg orally once a day, Day 1 to Day 10; spleen cells, DNP-BSA 5 μg/ml, 24 hours; read-out: Inhibition rate of IgM production
Description: as §1, §2

IL-5 production = experiment: Test 3: inhibition of IL-5 production in human PBMC stimulated with ConA; assay type: cell-based; conditions: 10^-6 M, 10 μg/ml ConA, 48 hours, read-out: Inhibition rate of IL-5 production
Method in brief: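 Human PBMC from a normal volunteer, 1×10^6 cells/ml in AIM-V, stimulated with 10 μg/ml ConA alongside compound and incubated 48 h at 37 °C, 5% CO2. Supernatant IL-5 quantified by EIA; inhibition rate calculated from a formula.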

IgE production = experiment: Test 4: inhibition of IgE production by spleen cells of orally treated sensitized mice; assay type: in vivo, Balb/c mouse; conditions: Mus musculus, po, 100 mg/kg orally once a day, Day 1 to Day 10, DNP-BSA 5 μg/ml, 24 hours, read-out: Inhibition rate of IgE production
Description: as §1, §2

IgG2a production = experiment: Test 4 (comparison): inhibition of IgG2a production; assay type: in vivo, Balb/c mouse; conditions: Mus musculus, po; 100 mg/kg orally once a day, Day 1 to Day 10; spleen cells, DNP-BSA 5 μg/ml, 24 hours; read-out: Inhibition rate of IgG2a production
Description: as §1, §2

IL-4 production [2] = experiment: Test 2: inhibition of IL-4 production in human T-cell strain ATL-16T(-) stimulated with PMA (Bio Source EIA); assay type: cell-based; conditions: ATL-16T(-) 5×10^5 cells/0.5 ml/well, 20 nM PMA, 48 hours, read-out: Inhibition rate of IL-4 production; for inhibition at 10 µM: 10^-5 M; for inhibition at 1 µM: 10^-6 M; for inhibition at 0.1 µM: 10^-7 M; for inhibition at 0.01 µM: 10^-8 M
Description: Test 2: Test on the inhibition of IL-4 production
as §3, with “5×10^5” for “1×10^6”, “50” for “100”, “(BIO SOURCE,” for “(R&D SYSTEMS,”

Row | SMILES | inhibition at 100 mg/kg (IgG1 production) [%] | inhibition at 10 µM (IL-4 production [1]) [%] | inhibition at 1 µM (IL-4 production [1]) [%] | inhibition at 0.1 µM (IL-4 production [1]) [%] | inhibition at 0.01 µM (IL-4 production [1]) [%] | inhibition at 100 mg/kg (IgM production) [%] | inhibition at 1 µM (IL-5 production) [%] | inhibition at 100 mg/kg (IgE production) [%] | inhibition at 100 mg/kg (IgG2a production) [%] | inhibition at 10 µM (IL-4 production [2]) [%] | inhibition at 1 µM (IL-4 production [2]) [%] | inhibition at 0.1 µM (IL-4 production [2]) [%] | inhibition at 0.01 µM (IL-4 production [2]) [%]
1 | O=C(/C=C/c1cc(O)c(O)cn1)c1ccccc1 [Ex. 20, 4,5-Dihydroxy-2-(3-oxo-3-phenyl-1-propenyl)pyridine] | 7.4 | 97.9 | 96.4 | 90.6 | 84 | -6.2 | 92.8 | 23.7 | 1.3 | – | – | – | –
2 | CCOC(=O)CCCOc1cc(/C=C/C(=O)c2ccccc2)ncc1OC [Ex. 44, Ethyl 4-[5-methyoxy-2-(3-oxo-3-phenyl-1-propenyl)-4-pyridyloxy]butanoate] | 8 | 89.1 | 86.1 | 56.2 | 46.5 | -4.2 | 90.6 | 26.7 | -2.2 | – | – | – | –
3 | CCOC(=O)CCCCOc1cc(/C=C/C(=O)C2CCCCC2)ncc1OC [Ex. 78, Ethyl 5-[2-(3-cyclohexyl-3-oxo-1-propenyl)-5-methoxy-4-pyridyloxy]pentanoate hydrochloride] | – | – | – | – | – | – | 63.1 | – | – | 71.1 | 70.8 | 68.5 | 68.2
4 | COc1cnc(/C=C/C(=O)C2CCCCC2)cc1OC1CCCC1 [Ex. 74, 2-(3-Cyclohexyl-3-oxo-1-propenyl)-4-cyclopentyloxy-5-methoxypyridine] | – | – | – | – | – | – | 77.9 | – | – | 81.6 | 32.4 | 27.7 | 5.9
5 | COc1cnc(/C=C/C(=O)C2CCCCC2)cc1OC [Ex. 73, 2-(3-Cyclohexyl-3-oxo-1-propenyl)-4,5-dimethoxypyridine hydrochloride] | – | – | – | – | – | – | 82.3 | – | – | 86.9 | 51.3 | 21.4 | 11.9
6 | CCOC(=O)CCCCCCCCCCCOc1cc(/C=C/C(=O)c2ccccc2OC)ncc1OC [Ex. 97, Ethyl 12-[5-methoxy-2-(3-(2-methoxyphenyl)-3-oxo-1-propenyl)-4-pyridyloxy]dodecanoate hydrochloride] | 5.6 | – | – | – | – | 1.9 | 93.9 | 30.5 | -9.5 | – | – | – | –
7 | COc1cnc(/C=C/C(=O)c2ccc([N+](=O)[O-])cc2)cc1OC [Ex. 52, 4,5-Dimethoxy-2-[3-(4-nitrophenyl)-3-oxo-1-propenyl]pyridine] | – | – | – | – | – | – | 64.2 | – | – | 76.1 | 48.9 | 25.6 | 11.6
8 | CCOC(=O)CCCOc1cc(/C=C/C(=O)c2cccnc2)ncc1OC [Ex. 71, Ethyl 4-[5-methoxy-2-(3-oxo-3-(3-pyridyl)-1-propenyl)-4-pyridyloxy]butanoate dih ydrochloride] | – | – | – | – | – | – | 93.3 | – | – | 81.2 | 69.1 | 68.6 | 61.9
9 | CCOC(=O)CCCOc1cc(/C=C/C(=O)C2CCCCC2)ncc1OC [Ex. 76, Ethyl 4-[2-(3-cyclohexyl-3-oxo-1-propenyl)-5-methoxy-4-pyridyloxy]butanoatehydrochloride] | – | – | – | – | – | – | 91.2 | – | – | 75.3 | 70.5 | 69.1 | 67.7
10 | COC(=O)c1ccc(COc2cc(/C=C/C(=O)c3ccccc3OC)ncc2OC)cc1 [Ex. 99] | 6.1 | – | – | – | – | 8.5 | 80.3 | 34.8 | 2.7 | – | – | – | –
11 | COc1cnc(/C=C/C(=O)c2c(Cl)cccc2Cl)cc1OC [Ex. 54, 4,5-Dimethoxy-2-[3-(2,6-dichlorophenyl)-3-oxo-1-propenyl]pyridine] | – | – | – | – | – | – | 93.3 | – | – | 101 | 98.7 | 24.2 | 6.1
12 | CCOC(=O)CCCOc1cc(/C=C/C(=O)c2ccc(OC)cc2OC)ncc1OC [Ex. 91, Ethyl 4-[5-methoxy-2-(3-(2,4-dimethoxyphenyl)-3-oxo-1-propenyl)-4-pyridyloxy]butanoate hydrochloride] | – | – | – | – | – | – | 85.8 | – | – | 93.4 | 62.3 | 62.2 | 59.8
13 | CCOC(=O)CCCCCOc1cc(/C=C/C(=O)c2ccsc2)ncc1OC [Ex. 100, Ethyl 6-[5-methoxy-2-(3-oxo-3-(3-thienyl)-1-propenyl)-4-pyridyloxy]hexanoate hyd rochloride] | -4 | – | – | – | – | -9 | 82.6 | 23.9 | -5.1 | – | – | – | –
14 | CCOC(=O)CCCOc1cc(/C=C/C(=O)c2ccncc2)ncc1OC [Ex. 72, Ethyl 4-[5-methoxy-2-(3-oxo-3-(4-pyridyl)-1-propenyl)-4-pyridyloxy]butanoate dih ydrochloride] | – | – | – | – | – | – | 84.1 | – | – | 75.4 | 73.7 | 69.1 | 68.8
15 | CCOC(=O)CCCCOc1cc(/C=C/C(=O)c2ccccc2OC)ncc1OC [Ex. 95, Ethyl 5-[5-methoxy-2-(3-(2-methoxyphenyl)-3-oxo-1-propenyl)-4-pyridyloxy]pentanoate hydrochloride] | – | – | – | – | – | – | 65.6 | – | – | 105 | 60.9 | 59.2 | 57.3
16 | CCOC(=O)CCCCCOc1cc(/C=C/C(=O)c2c(OC)cccc2OC)ncc1OC [Ex. 85, Ethyl 6-[5-methoxy-2-(3-(2,6-dimethoxyphenyl)-3-oxo-1-propenyl)-4-pyridyloxy]hexanoate hydrochloride] | – | – | – | – | – | – | 75.7 | – | – | 86.3 | 77.4 | 77.1 | 73.9
17 | COc1cnc(/C=C/C(=O)c2c(OC)cccc2OC)cc1O [Ex. 56, 4-Hydroxy-5-methoxy-2-[3-(2,6-dimethoxyphenyl)-3-oxo-1-propenyl]pyridine] | – | – | – | – | – | – | 79.8 | – | – | 101 | 53.7 | 47.1 | 42.1
18 | COc1cnc(/C=C/C(=O)c2ccccc2[N+](=O)[O-])cc1OC [Ex. 51, 4,5-Dimethoxy-2-[3-(2-nitrophenyl)-3-oxo-1-propenyl]pyridine] | – | – | – | – | – | – | 93.6 | – | – | 102 | 20.5 | 30.1 | 26.3

— patent US6046218A, “Pyridine derivative and medicament containing the same as an effective ingredient” (SS Pharmaceutical Co., Ltd., priority 1996, dated 2000)
